# Experiments:
# CAL-51 [1] = settings: 72 h
# In short: (§1)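 For viability and cell death testing, 384-well plates carried compound at 5 concentrations in 10-fold steps over a compound-specific 10,000-fold range, and breast cancer cell lines were seeded in 20 µl suspension. After 72 h incubation, cell death was read by CellTox Green fluorescence (485/520 nm) before viability was read by CellTiter-Glo luminescence. EC50 was fitted from the dose-response curves and censored at the top concentration. Normalisation on each plate was to 0.1 % DMSO and a positive kill control.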
# MDA-MB-468 = settings: 72 h
# In short: as §1
# MCF-10A [2] = settings: 72 h
# In short: as §1
# CAL-85-1 [3] = settings: 72 h
# In short: as §1
# BT-549 = experiment: normalised response (% of control), CellTiter-Glo; higher = more viable cells (100 = DMSO, 0 = benzethonium chloride kill control); settings: incubation time: 72 h
# In short: (§2)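 Each entry is the normalised signal at a single concentration within a series. The series comprised 5 concentrations in 10-fold steps over a compound-specific 10,000-fold range, placed in 384-well plates into which breast cancer cell lines were seeded as 20 µl suspension and incubated 72 h. CellTox Green (485/520 nm) fluorescence and then CellTiter-Glo luminescence were read, with signals normalised per plate to 0.1 % DMSO (100) and a positive kill control (0).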
# MFM-223 = experiment: as above; settings: incubation time: 72 h
# In short: as §2
# HCC1599 = experiment: as above; settings: incubation time: 72 h
# In short: as §2
# MDA-MB-436 = experiment: as above; settings: incubation time: 72 h
# In short: as §2
# MCF-10A [4] = experiment: as above; settings: incubation time: 72 h
# In short: as §2
# SK-BR-3 = experiment: as above; settings: incubation time: 72 h
# In short: as §2
# HCC1143 = experiment: as above; settings: incubation time: 72 h
# In short: as §2
# CAL-51 [5] = experiment: normalised viability (% of control), CellTiter-Blue; higher = more viable cells (about 100 = DMSO control); settings: incubation time: 72 h
# Procedure: (§3)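 DSRT, CellTiter-Blue viability, 72 h incubation. Signal is normalised to DMSO and benzethonium chloride controls. Value is the normalised response at dose 7.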
# MDA-MB-453 = experiment: as above; settings: incubation time: 72 h
# Procedure: as §3
# HDQ-P1 = experiment: as above; settings: incubation time: 72 h
# Procedure: as §3
# CAL-85-1 [6] = experiment: as above; settings: incubation time: 72 h
# Procedure: as §3
# DU-4475 = experiment: as above; settings: incubation time: 72 h
# Procedure: as §3
# CAL-148 = experiment: as above; settings: incubation time: 72 h
# Procedure: as §3
# BT-474 = settings: 72 h
# In short: as §1
# CAL-120 = settings: 72 h
# In short: as §1
SMILES,"EC50, CellTiter-Glo (CAL-51 [1])","EC50, CellTiter-Glo (MDA-MB-468)","EC50, CellTiter-Glo (MCF-10A [2])","EC50, CellTiter-Glo (CAL-85-1 [3])",normalised response (BT-549),normalised response (MFM-223),normalised response (HCC1599),normalised response (MDA-MB-436),normalised response (MCF-10A [4]),normalised response (SK-BR-3),normalised response (HCC1143),normalised viability (CAL-51 [5]),normalised viability (MDA-MB-453),normalised viability (HDQ-P1),normalised viability (CAL-85-1 [6]),normalised viability (DU-4475),normalised viability (CAL-148),"EC50, CellTiter-Glo (BT-474)","EC50, CellTiter-Glo (CAL-120)"
Nc1nccc(-c2c(-c3ccc(F)cc3)ncn2C2CCCCC2)n1,> 10 µM,0.213 µM,9.77 µM,9.49 µM,–,–,–,–,–,–,–,–,–,–,–,–,–,–,–
COc1ncc(-c2ccc3nccc(-c4ccnnc4)c3c2)cc1NS(=O)(=O)c1ccc(F)cc1F (100 nM),–,–,–,–,27.1%,37%,55.4%,46.7%,31.8%,23.6%,38.2%,17.2%,7.68%,22.3%,30.5%,61.5%,25%,–,–
C[C@@]1(C(=O)Nc2ccc(F)nc2)CCCN1c1nc(Nc2cc(C3CC3)n[nH]2)c2cccn2n1 (1000 nM),–,–,–,–,61.4%,58.1%,72.8%,66.9%,20.4%,67.9%,71.5%,63.4%,56.6%,32.3%,49.4%,78.6%,79.6%,–,–
COc1c(C)cnc(Cn2cnc3c(Cl)nc(N)nc32)c1C [BIIB021] (1000 nM),–,–,–,–,37.3%,40.2%,54.3%,42.5%,15.4%,37.8%,38.6%,26.1%,6.04%,46.8%,33.4%,0.09%,14.6%,–,–
CC(C)C[C@H](NC(=O)[C@H](Cc1ccccc1)NC(=O)c1cnccn1)B(O)O [Bortezomib] (100 nM),–,–,–,–,1.75%,3.48%,56.6%,2.39%,68.6%,4.21%,10.9%,2.63%,19.4%,1.22%,5.3%,2.48%,18.2%,–,–
CS(=O)(=O)OCCCCOS(C)(=O)=O [Busulfan],–,–,–,–,–,–,–,–,–,–,–,–,–,–,–,–,–,> 100 µM,–
CS(=O)(=O)OCCCCOS(C)(=O)=O [Busulfan] (10000 nM),–,–,–,–,97.3%,107%,103%,101%,98.9%,110%,99.1%,85.6%,104%,88.2%,108%,103%,120%,–,–
C#Cc1cccc(Nc2ncnc3cc(OC)c(OCCCCCCC(=O)NO)cc23)c1 [CUDC-101] (1000 nM),–,–,–,–,66.9%,33.4%,47.9%,73.7%,28.9%,33.5%,48.9%,97.7%,19.1%,50%,24.9%,60.9%,47%,–,–
COc1cccc2c1C(=O)c1c(O)c3c(c(O)c1C2=O)C[C@@](O)(C(C)=O)C[C@@H]3O[C@H]1C[C@H](N)[C@H](O)[C@H](C)O1 [Daunorubicin] (100 nM),–,–,–,–,68.9%,115%,103%,77.9%,103%,91.9%,95.8%,38%,94.8%,94.9%,77.2%,41.7%,30.8%,–,–
CN1CCN(c2ccc3nc(-c4c(N)c5c(F)cccc5[nH]c4=O)[nH]c3c2)CC1 [Dovitinib],–,–,–,–,–,–,–,–,–,–,–,–,–,–,–,–,–,–,> 10 µM
CN1CCN(c2ccc3nc(-c4c(N)c5c(F)cccc5[nH]c4=O)[nH]c3c2)CC1 [Dovitinib] (1000 nM),–,–,–,–,95.5%,95.4%,106%,101%,97.2%,97.2%,99.1%,116%,91.4%,69.7%,78.3%,94.7%,90.7%,–,–
O=c1[nH]c(=O)n([C@H]2C[C@H](O)[C@@H](CO)O2)cc1F [Floxuridine] (1000 nM),–,–,–,–,85.4%,104%,67.7%,67.9%,106%,54.2%,94.3%,31.9%,81.9%,86.5%,53.1%,91.6%,50.6%,–,–
O=c1[nH]cc(F)c(=O)[nH]1 [Fluorouracil] (1000 nM),–,–,–,–,104%,102%,84%,75.6%,116%,78.9%,100%,102%,91.7%,96.1%,74.2%,105%,75.5%,–,–
C[C@@H]1C=C2C(=O)O[C@@H]3CC[C@H](C1)[C@]23O [Galiellalactone] (5000 nM),–,–,–,–,97.6%,104%,98.4%,106%,105%,102%,101%,105%,73.7%,98%,72.6%,118%,147%,–,–

# From the supplement of paper PMC4862054
